Results taken from ChEMBL document CHEMBL5620430, “Design, synthesis and biological evaluation of indazole derivatives as selective covalent inhibitors of FGFR4 in wild-type and gatekeeper mutants” (Eur J Med Chem, 2023).

How the values were obtained:
Huh-7 [1] = experiment: Induction of apoptosis in human Huh-7 cells assessed as late apoptotic cells at 2 uM measured after 48 hrs by AnnexinV-FITC/PI staining based flow cytometry (reference value: 2.55%); format: functional
[2] = Toxicity in NSG mouse assessed as lethality at 20 to 40 mg/kg […]; format: organism-based; conditions: in vivo, dose 20-40 mg/kg
Huh-7 [3] = experiment: Antitumor activity against human Huh-7 cells xenografted in ip dosed NSG mouse assessed as decrease in FGFR4 phosphorylation level administered twice per day for 2 weeks; format: functional, organism-based; conditions: dose 20-40 mg/kg
[4] = MRT (0 to t) in Sprague-Dawley rat at 10 mg/kg, po by LC-MS/MS analysis; format: ADME, organism-based; conditions: in vivo
BaF3 [5] = experiment: cells; conditions: Mus musculus
Description: Antiproliferative activity against mouse BaF3 cells harbouring ETV6-FGFR4-V550L mutant measured after 24 to 48 hrs by MTT assay

Huh-7 [6] = experiment: Antitumor activity against human Huh-7 cells xenografted in ip dosed NSG mouse assessed as decrease in Ki-67 expression administered twice per day for 2 weeks; format: functional, organism-based; conditions: dose 20-40 mg/kg
[7] = Toxicity in NSG mouse assessed as effect on LDL-C level at 20 to 40 mg/kg […]; format: organism-based; conditions: in vivo, dose 20-40 mg/kg
[8] = Toxicity in NSG mouse assessed as effect on ALP level at 20 to 40 mg/kg […]; format: organism-based; conditions: in vivo, dose 20-40 mg/kg
[9] = Toxicity in NSG mouse assessed as effect on heart at 20 to 40 mg/kg by H and E staining based analysis; format: organism-based; conditions: in vivo, dose 20-40 mg/kg
[10] = biological target: Fibroblast growth factor receptor 4 (Homo sapiens, UniProt P22455); experiment: Inhibition of FGFR4 in human Huh-7 cells assessed as inhibition of MEK phosphorylation measured after 2 hrs by Western blot analysis; format: cell-based
Huh-7 [11] = experiment: Inhibition of cell migration in human Huh-7 cells at 5 uM incubated for 24 hrs by wound healing assay relative to control; format: functional
[12] = Observed clearance in Sprague-Dawley rat at 2 mg/kg, iv by LC-MS/MS analysis; format: ADME, organism-based; conditions: in vivo
[13] = Toxicity in NSG mouse assessed as effect on HDL-C level at 20 to 40 mg/kg […]; format: organism-based; conditions: in vivo, dose 20-40 mg/kg
[14] = Cmax in Sprague-Dawley rat at 10 mg/kg, po by LC-MS/MS analysis; format: ADME, organism-based; conditions: in vivo
BaF3 [15] = experiment: cells; conditions: Mus musculus; remark: listed apart in the source
Description: Antiproliferative activity against mouse BaF3 cells harbouring ETV6-FGFR4-N535K mutant measured after 24 to 48 hrs by MTT assay

Fibroblast growth factor receptor 4, sequence (P22455 22-802 limits assumed): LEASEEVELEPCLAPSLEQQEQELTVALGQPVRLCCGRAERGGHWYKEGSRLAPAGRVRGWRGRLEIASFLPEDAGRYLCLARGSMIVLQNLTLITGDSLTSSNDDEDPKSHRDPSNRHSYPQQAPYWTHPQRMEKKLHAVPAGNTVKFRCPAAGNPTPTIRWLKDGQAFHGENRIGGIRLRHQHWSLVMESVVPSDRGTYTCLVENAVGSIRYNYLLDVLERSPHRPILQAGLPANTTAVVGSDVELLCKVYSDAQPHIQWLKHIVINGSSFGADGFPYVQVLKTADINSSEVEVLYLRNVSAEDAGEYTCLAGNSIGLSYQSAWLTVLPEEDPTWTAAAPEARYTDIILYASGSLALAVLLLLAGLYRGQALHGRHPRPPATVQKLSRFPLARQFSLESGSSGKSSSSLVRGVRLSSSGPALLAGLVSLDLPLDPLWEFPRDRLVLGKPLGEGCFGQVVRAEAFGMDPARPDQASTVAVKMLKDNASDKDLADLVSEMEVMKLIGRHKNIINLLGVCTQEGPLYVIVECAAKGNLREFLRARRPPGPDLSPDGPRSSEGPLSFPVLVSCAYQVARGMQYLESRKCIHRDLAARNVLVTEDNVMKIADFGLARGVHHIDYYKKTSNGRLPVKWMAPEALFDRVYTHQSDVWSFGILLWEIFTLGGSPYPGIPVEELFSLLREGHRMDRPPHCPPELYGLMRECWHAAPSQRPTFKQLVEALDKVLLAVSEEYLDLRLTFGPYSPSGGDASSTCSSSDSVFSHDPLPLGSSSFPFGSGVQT

Question: Which Activity (Huh-7 [1]) does the source give for `C=CC(=O)Nc1cc2c(cc1-c1n[nH]c3ccc(O[C@H](C)c4c(Cl)cncc4Cl)cc13)CCN(C)C2` here?
Answer: Its Activity is 11.39%.

Question: What about the Activity [2] of the same compound?
Answer: Its Activity is “Non-Toxic”.

Question: And the Activity (Huh-7 [3])?
Answer: Its Activity is “Dose-Dependent Effect”.

Question: What about the MRT last [4] of the same compound?
Answer: The MRT last was 3.04 h.

Question: And the IC50 (BaF3 [5])?
Answer: Its IC50 is 2 nM.

Question: What about the Activity (Huh-7 [6]) of the same compound?
Answer: Its Activity is “Dose-Dependent Effect”.

Question: And the Activity [7]?
Answer: Its Activity is “Non-Toxic”.

Question: And the Activity [8]?
Answer: Its Activity is “Non-Toxic”.

Question: And the Activity [9]?
Answer: Its Activity is “Non-Toxic”.

Question: And the inhibition [10]?
Answer: The inhibition was “Dose-Dependent Effect”.

Question: And the inhibition at 5 µM (Huh-7 [11])?
Answer: Its inhibition at 5 µM is 90%.

Question: What about the clearance [12] of the same compound?
Answer: Its clearance is 174 mL/min/kg.

Question: And the Activity [13]?
Answer: The Activity was “Non-Toxic”.

Question: What about the Cmax [14] of the same compound?
Answer: Its Cmax is 4.91 ng/mL.

Question: And the IC50 (BaF3 [15])?
Answer: Its IC50 is 172 nM.
